Experimental data taken from patent US10738057B2, “Tertiary alcohols as PI3K-γ inhibitors” (Incyte Corporation, priority 2017, dated 2020).
Structures can show the parent of a compound that is named as a salt.

What was measured:
[1] = target: PI3Kδ (p110δ/p85α) Recombinant Human Protein (Homo sapiens (Human), UniProt O00329); experiment: PI3Kδ scintillation proximity assay; type: biochemical; settings: 20 μM PIP2, 2 μM ATP, 3.4 nM PI3Kδ, 120 min, room temperature; read-out: PI3Kδ IC50
Procedure: PI3Kδ Scintillation Proximity Assay
[γ-^33P]ATP (10 mCi/mL) and Wheat Germ Agglutinin (WGA) YSi SPA Scintillation Beads was purchased from PerkinElmer (Waltham, Mass.). […] PI3Kδ (p110δ/p85α) Recombinant Human Protein was purchased from Eurofins (St Charles, Mo.). ATP, MgCl2, DTT, EDTA, MOPS and CHAPS were purchased from SigmaAldrich (St. Louis, Mo.).
The kinase reaction was conducted in polystyrene 384-well Greiner Bio-one white plate from Thermo Fisher Scientific in a final volume of 25 μL. Inhibitors were first diluted serially in DMSO and added to the plate wells before the addition of other reaction components. The final concentration of DMSO in the assay was 2%. The PI3Kδ assay was carried out at room temperature in 20 mM MOPS, pH 6.7, 10 mM MgCl2, 5 mM DTT and CHAPS 0.03%. Reactions were initiated by the addition of ATP, the final reaction mixture consisted of 20 μM PIP2, 2 μM ATP, 0.5 μCi [γ-^33P] […] The final concentration of SPA beads is 1.0 mg/mL. After the plate sealing, plates were shaken overnight at room temperature and centrifuged at 1500 rpm for 10 min, the radioactivity of the product was determined by scintillation counting on Topcount (PerkinElmer). IC50 determination was performed by fitting the curve of percent of the solvent control activity versus the log of the inhibitor concentration using the GraphPad Prism 6.0 software.

[2] = target: PI3Kγ (p110γ) Recombinant Human Protein (Homo sapiens (Human), UniProt P48736); experiment: PI3K-γ scintillation proximity assay; type: biochemical; settings: 20 μM PIP2, 2 μM ATP, 13 nM PI3Kγ, 120 min, room temperature
Text: Example B. PI3K-γ Scintillation Proximity Assay
[γ-^33P]ATP (10 mCi/mL) and Wheat Germ Agglutinin (WGA) YSi SPA Scintillation Beads was purchased from PerkinElmer (Waltham, Mass.). Lipid kinase substrate, D-myo-Phosphatidylinositol 4,5-bisphosphate (PtdIns(4,5)P2)D (+)-sn-1,2-di-O-octanoylglyceryl, 3-O-phospho linked (PIP2), CAS 204858-53-7, was purchased from Echelon Biosciences (Salt Lake City, Utah). PI3Kγ (p110γ) Recombinant Human Protein was purchased from Life technology (Grand Island, N.Y.). ATP, MgCl2, DTT, EDTA, MOPS and CHAPS were purchased from SigmaAldrich (St. Louis, Mo.).
The kinase reaction was conducted in polystyrene 384-well Greiner Bio-one white plate from Thermo Fisher Scientific in a final volume of 25 μL. Inhibitors were first diluted serially in DMSO and added to the plate wells before the addition of other reaction components. The final concentration of DMSO in the assay was 2%. The PI3Kγ assay was carried out at room temperature in 20 mM MOPS, pH 6.7, 10 mM MgCl2, 5 mM DTT and CHAPS 0.03%. Reactions were initiated by the addition of ATP, the final reaction mixture consisted of 20 μM PIP2, 2 μM ATP, 0.5 μCi [γ-^33P] ATP, 13 nM PI3Kγ. Reactions were incubated for 120 min and terminated by the addition of 40 μL SPA beads suspended in quench buffer: 163 mM potassium phosphate pH 7.8, 20% glycerol, 25 mM EDTA. The final concentration of SPA beads is 1.0 mg/mL. After the plate sealing, plates were shaken overnight at room temperature and centrifuged at 1500 rpm for 10 min, the radioactivity of the product was determined by scintillation counting on Topcount (Perkin-Elmer). IC50 determination was performed by fitting the curve of percent of the solvent control activity versus the log of the inhibitor concentration using the GraphPad Prism 6.0 software.

Chain of PI3Kδ (p110δ/p85α) Recombinant Human Protein (O00329 whole entry): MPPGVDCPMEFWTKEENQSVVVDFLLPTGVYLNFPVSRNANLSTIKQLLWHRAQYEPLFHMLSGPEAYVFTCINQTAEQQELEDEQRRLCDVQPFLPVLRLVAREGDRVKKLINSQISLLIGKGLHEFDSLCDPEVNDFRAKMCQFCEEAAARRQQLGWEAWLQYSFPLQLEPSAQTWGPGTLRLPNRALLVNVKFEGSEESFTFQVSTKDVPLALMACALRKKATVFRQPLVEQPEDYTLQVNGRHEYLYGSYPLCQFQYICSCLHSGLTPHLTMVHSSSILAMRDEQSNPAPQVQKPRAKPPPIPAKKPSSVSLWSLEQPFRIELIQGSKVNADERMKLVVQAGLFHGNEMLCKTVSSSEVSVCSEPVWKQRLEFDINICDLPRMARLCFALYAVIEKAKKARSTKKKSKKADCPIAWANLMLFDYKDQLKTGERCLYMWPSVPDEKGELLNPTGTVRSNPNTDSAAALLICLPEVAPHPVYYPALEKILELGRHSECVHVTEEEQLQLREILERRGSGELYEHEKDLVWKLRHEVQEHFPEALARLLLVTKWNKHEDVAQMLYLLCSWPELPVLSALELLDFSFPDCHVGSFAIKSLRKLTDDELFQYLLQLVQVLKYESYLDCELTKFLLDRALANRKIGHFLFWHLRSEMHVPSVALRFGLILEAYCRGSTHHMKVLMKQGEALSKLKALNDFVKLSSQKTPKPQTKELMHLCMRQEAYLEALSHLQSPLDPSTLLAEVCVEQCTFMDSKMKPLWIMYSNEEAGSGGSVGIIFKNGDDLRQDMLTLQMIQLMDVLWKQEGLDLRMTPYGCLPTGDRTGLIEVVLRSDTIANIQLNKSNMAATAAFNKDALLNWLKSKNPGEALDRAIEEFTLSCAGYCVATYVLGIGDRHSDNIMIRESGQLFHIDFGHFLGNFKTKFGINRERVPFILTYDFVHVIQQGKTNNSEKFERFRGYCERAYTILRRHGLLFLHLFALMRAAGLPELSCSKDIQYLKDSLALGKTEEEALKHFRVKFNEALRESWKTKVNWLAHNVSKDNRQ
Chain of PI3Kδ (p110δ/p85α) Recombinant Human Protein (P27986 whole entry partner): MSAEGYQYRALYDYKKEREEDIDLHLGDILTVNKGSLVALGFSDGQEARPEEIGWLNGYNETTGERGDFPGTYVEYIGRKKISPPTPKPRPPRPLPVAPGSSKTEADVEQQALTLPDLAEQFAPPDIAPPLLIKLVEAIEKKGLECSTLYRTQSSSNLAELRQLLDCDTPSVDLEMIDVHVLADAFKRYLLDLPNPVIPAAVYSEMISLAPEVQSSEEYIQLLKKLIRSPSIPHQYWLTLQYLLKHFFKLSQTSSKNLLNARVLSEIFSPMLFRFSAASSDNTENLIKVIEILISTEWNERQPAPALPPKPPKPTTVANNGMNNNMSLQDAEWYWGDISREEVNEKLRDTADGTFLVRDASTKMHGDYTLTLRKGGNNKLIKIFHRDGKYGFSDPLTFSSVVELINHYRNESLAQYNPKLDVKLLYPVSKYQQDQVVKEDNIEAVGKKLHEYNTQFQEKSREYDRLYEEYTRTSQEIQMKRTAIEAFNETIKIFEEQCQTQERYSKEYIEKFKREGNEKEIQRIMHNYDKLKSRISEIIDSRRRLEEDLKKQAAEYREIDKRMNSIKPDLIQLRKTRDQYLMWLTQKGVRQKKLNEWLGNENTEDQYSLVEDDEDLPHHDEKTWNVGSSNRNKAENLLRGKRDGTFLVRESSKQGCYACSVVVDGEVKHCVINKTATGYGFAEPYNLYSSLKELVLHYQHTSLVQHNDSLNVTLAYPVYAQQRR
Chain of PI3Kγ (p110γ) Recombinant Human Protein (P48736 whole entry): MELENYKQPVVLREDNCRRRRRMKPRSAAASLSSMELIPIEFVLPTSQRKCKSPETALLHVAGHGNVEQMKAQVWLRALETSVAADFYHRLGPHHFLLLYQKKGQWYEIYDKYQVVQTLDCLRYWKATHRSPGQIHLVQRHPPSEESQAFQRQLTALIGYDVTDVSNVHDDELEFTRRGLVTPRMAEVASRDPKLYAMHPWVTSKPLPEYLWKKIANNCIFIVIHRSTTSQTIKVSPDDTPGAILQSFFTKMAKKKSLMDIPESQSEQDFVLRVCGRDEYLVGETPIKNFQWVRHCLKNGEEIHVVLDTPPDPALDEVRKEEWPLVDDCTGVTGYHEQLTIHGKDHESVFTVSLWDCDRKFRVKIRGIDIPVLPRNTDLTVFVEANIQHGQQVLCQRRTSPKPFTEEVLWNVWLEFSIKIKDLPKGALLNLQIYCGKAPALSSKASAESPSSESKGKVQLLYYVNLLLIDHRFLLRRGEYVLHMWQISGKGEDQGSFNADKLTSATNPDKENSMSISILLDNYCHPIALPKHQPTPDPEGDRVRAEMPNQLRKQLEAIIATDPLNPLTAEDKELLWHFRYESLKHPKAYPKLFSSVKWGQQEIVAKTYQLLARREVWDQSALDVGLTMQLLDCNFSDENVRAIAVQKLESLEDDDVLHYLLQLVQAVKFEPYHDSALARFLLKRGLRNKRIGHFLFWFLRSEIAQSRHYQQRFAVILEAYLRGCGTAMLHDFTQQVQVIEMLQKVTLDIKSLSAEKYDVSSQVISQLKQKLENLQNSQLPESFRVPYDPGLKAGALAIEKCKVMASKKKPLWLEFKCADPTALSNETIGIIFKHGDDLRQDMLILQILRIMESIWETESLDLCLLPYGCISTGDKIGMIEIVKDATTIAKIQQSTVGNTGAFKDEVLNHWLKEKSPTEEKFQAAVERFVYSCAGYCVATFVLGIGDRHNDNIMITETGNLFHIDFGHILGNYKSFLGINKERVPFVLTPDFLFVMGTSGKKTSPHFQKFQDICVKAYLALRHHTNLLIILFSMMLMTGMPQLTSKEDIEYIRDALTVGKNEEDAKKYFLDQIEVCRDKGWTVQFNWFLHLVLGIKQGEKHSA

Row | Structure (SMILES) | IC50 [1] [µM] | IC50 [2] [µM]
1 | Cc1ccc(C(C)(O)C(F)(F)F)cc1-c1cnc2c(N)nc(C(=O)NC34CCN(CC3)C4)cn12 (stereo not drawn) [Example 277, 8-Amino-N-(1-azabicyclo[2.2.1]heptan-4-yl)-3-(2-methyl-5-(1,1,1-trifluoro-2-hydroxypropan-2-yl)phenyl)imidazo[1,2-a]pyrazine-6-carboxamide trifluoroacetate salt] | 0.1 to 0.5 | 0.1 to 0.5
2 | Cc1ccc(C(C)(O)C(F)F)cc1-c1cnc2c(N)nc(C3CC3C(=O)N3CCN(C)CC3)cn12 (stereo not drawn) [Example 77, (2-(8-Amino-3-(5-(1,1-difluoro-2-hydroxypropan-2-yl)-2-methylphenyl)imidazo[1,2-a]pyrazin-6-yl)cyclopropyl)(4-methylpiperazin-1-yl)methanone trifluoroacetate salt] | 0.1 to 0.5 | < 0.1
3 | Cc1ccc(C(C)(O)C(F)(F)F)cc1-c1cnc2c(N)nc(CC(=O)N3CCOCC3)cn12 (stereo not drawn) [Example 173, 2-(8-amino-3-(2-methyl-5-(1,1,1-trifluoro-2-hydroxypropan-2-yl)phenyl)imidazo[1,2-a]pyrazin-6-yl)-1-morpholinoethanone trifluoroacetate salt] | 0.5 to 2 | 0.1 to 0.5
4 | Cc1ccc(C(C)(O)C(F)F)cc1-c1cnc2c(N)nc(-c3cncnc3)cn12 (stereo not drawn) [Example 32, 2-(3-(8-Amino-6-(pyrimidin-5-yl)imidazo[1,2-a]pyrazin-3-yl)-4-methylpheny1)-1,1-difluoropropan-2-ol] | 0.5 to 2 | < 0.1
5 | CC(O)(c1cccc(-c2cnc3c(N)nc(C(F)(F)F)cn23)c1)C(F)(F)F (stereo not drawn) [Example 56, 2-(3-(8-Amino-6-(trifluoromethyl)imidazo[1,2-a]pyrazin-3-yl)phenyl)-1,1,1-trifluoropropan-2-ol] | – | < 0.1
6 | Cc1ccc(C(C)(O)C(F)(F)F)cc1-c1cnc2c(N)nc(C(=O)NC34COC(CO)(C3)C4)cn12 (stereo not drawn) [Example 279, 8-Amino-N-(1-(hydroxymethyl)-2-oxabicyclo[2.1.1]hexan-4-yl)-3-(2-methyl-5-(1,1,1-trifluoro-2-hydroxypropan-2-yl)phenyl)imidazo[1,2-a]pyrazine-6-carboxamide trifluoroacetate salt] | 0.1 to 0.5 | < 0.1
7 | Cc1cn2c(-c3cc(C(C)(O)C(F)(F)F)ccc3C)cnc2c(N)n1 (stereo not drawn) [Example 7, 2-(3-(8-Amino-6-methylimidazo[1,2-a]pyrazin-3-yl)-4-methylphenyl)-1,1,1-trifluoropropan-2-ol] | 0.1 to 0.5 | < 0.1
8 | CC(O)(c1ccc(F)c(-c2cnc3c(N)nc(C(F)(F)F)cn23)c1)C(F)(F)F (stereo not drawn) [Example 57, 2-(3-(8-Amino-6-(trifluoromethyl)imidazo[1,2-a]pyrazin-3-yl)-4-fluorophenyl)-1,1,1-trifluoropropan-2-ol] | – | < 0.1
9 | Cc1cnc(C(C)(O)C(F)(F)F)cc1-c1cnc2c(N)nc(C(F)(F)F)cn12 (stereo not drawn) [Example 54, 2-(4-(8-Amino-6-(trifluoromethyl)imidazo[1,2-a]pyrazin-3-yl)-5-methylpyridin-2-yl)-1,1,1-trifluoropropan-2-ol] | – | < 0.1
10 | Cc1ncc(C(C)(O)C(F)(F)F)cc1-c1cnc2c(N)nc(C(F)(F)F)cn12 (stereo not drawn) [Example 58, 2-(5-(8-Amino-6-(trifluoromethyl)imidazo[1,2-a]pyrazin-3-yl)-6-methylpyridin-3-yl)-1,1,1-trifluoropropan-2-ol] | – | 0.1 to 0.5
11 | Cc1cc(F)c(C(C)(O)C(F)(F)F)cc1-c1cnc2c(N)nc(C(F)(F)F)cn12 (stereo not drawn) [Example 53, 2-(5-(8-Amino-6-(trifluoromethyl)imidazo[1,2-a]pyrazin-3-yl)-2-fluoro-4-methylphenyl)-1,1,1-trifluoropropan-2-ol] | – | < 0.1
12 | CC(O)(c1cc(-c2cnc3c(N)nc(C(F)(F)F)cn23)ccc1F)C(F)(F)F (stereo not drawn) [Example 55, 2-(5-(8-Amino-6-(trifluoromethyl)imidazo[1,2-a]pyrazin-3-yl)-2-fluorophenyl)-1,1,1-trifluoropropan-2-ol] | – | < 0.1
